What all share (assay): relative viability (nuclei count vs DMSO), 5 days (fraction); higher = more cells survive
Compound in experiment [1]: CCOc1cc2ncc(C#N)c(Nc3ccc(OCc4ccccn4)c(Cl)c3)c2cc1NC(=O)/C=C/CN(C)C [Neratinib] + COc1cccc2cc(-c3nc([C@H]4CC[C@H](C(=O)O)CC4)n4ncnc(N)c34)[nH]c12 [OSI-027] (partner 0.5 µM)
The method, boiled down: (§1)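 A single step with final 0.05% Triton X-100, 1% formaldehyde and 1 ug/ml Hoechst fixed the cells and stained nuclei 5 days after treatment. Lung cancer cell lines in 1536-well plates had been treated by pin tool the day after seeding with one drug alone or a fixed anchor-drug dose plus five library-drug doses (not always all listed) in √10 steps, and nuclei were counted on 4× images. Relative viability is the ratio of nuclei in treated wells to nuclei in vehicle wells, taken as the median of duplicate plates.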

Compound in experiment [2]: CCOc1cc2ncc(C#N)c(Nc3ccc(OCc4ccccn4)c(Cl)c3)c2cc1NC(=O)/C=C/CN(C)C [Neratinib] + C[C@@H](Oc1cc(-c2cnn(C3CCNCC3)c2)cnc1N)c1c(Cl)ccc(F)c1Cl [Crizotinib] (partner 1 µM)
The method, boiled down:
as §1

Compound in experiment [3]: CCOc1cc2ncc(C#N)c(Nc3ccc(OCc4ccccn4)c(Cl)c3)c2cc1NC(=O)/C=C/CN(C)C [Neratinib] + C[C@]1(O)C[C@@H](c2nc(-c3ccc4ccc(-c5ccccc5)nc4c3)c3c(N)nccn32)C1 [Linsitinib] (partner 1 µM)
The method in brief: as §1

Compound in experiment [4]: CCOc1cc2ncc(C#N)c(Nc3ccc(OCc4ccccn4)c(Cl)c3)c2cc1NC(=O)/C=C/CN(C)C [Neratinib] + Cc1cc(Nc2cc(N3CCN(C)CC3)nc(Sc3ccc(NC(=O)C4CC4)cc3)n2)n[nH]1 [Tozasertib] (partner 0.1 µM)
The method, boiled down:
as §1

Turning to NCI-H596, the relative viability in experiment [1] (first compound 0.01 µM) was determined as 0.771; in experiment [1] (first compound 0.03162 µM), 0.822; in experiment [1] (first compound 0.1 µM), 0.686; in experiment [1] (first compound 0.3162 µM), 0.704; in experiment [1] (first compound 1 µM) it was 0.386; in experiment [2] (first compound 0.01 µM), 0.944. Moreover, the relative viability came to 1.09 in experiment [2] (first compound 0.03162 µM); 1.04 in experiment [2] (first compound 0.1 µM); 0.903 in experiment [2] (first compound 0.3162 µM); 0.861 in experiment [2] (first compound 1 µM); 1.2 in experiment [3] (first compound 0.01 µM); 1.07 in experiment [3] (first compound 0.03162 µM). Moreover, the relative viability in experiment [3] (first compound 0.1 µM) stood at 0.995; in experiment [3] (first compound 0.3162 µM) it was 0.923; in experiment [3] (first compound 1 µM), 0.791; in experiment [4] (first compound 0.01 µM) it was 0.862; in experiment [4] (first compound 0.03162 µM) it was 0.961; in experiment [4] (first compound 0.1 µM), 0.736. Moreover, the relative viability in experiment [4] (first compound 0.3162 µM) was 0.857; in experiment [4] (first compound 1 µM), 0.601.
Take SK-LU-1: the relative viability worked out at 0.373 in experiment [1] (first compound 0.01 µM); 0.384 in experiment [1] (first compound 0.03162 µM); 0.305 in experiment [1] (first compound 0.1 µM); 0.238 in experiment [1] (first compound 0.3162 µM); 0.135 in experiment [1] (first compound 1 µM); 1.05 in experiment [2] (first compound 0.01 µM). In addition, the relative viability in experiment [2] (first compound 0.1 µM) is 0.848; in experiment [2] (first compound 0.3162 µM) it was 0.604; in experiment [2] (first compound 1 µM) it was 0.402; in experiment [3] (first compound 0.01 µM), 1.15; in experiment [3] (first compound 0.03162 µM), 1.31; in experiment [3] (first compound 0.1 µM), 0.876. Also, the relative viability in experiment [3] (first compound 0.3162 µM) stood at 0.629; in experiment [3] (first compound 1 µM), 0.401; in experiment [4] (first compound 0.01 µM), 0.292; in experiment [4] (first compound 0.03162 µM) it was 0.305; in experiment [4] (first compound 0.1 µM), 0.277; in experiment [4] (first compound 0.3162 µM), 0.294. Further, the relative viability in experiment [4] (first compound 1 µM) came out at 0.227.
With LK-2, the relative viability worked out at 0.189 in experiment [1] (first compound 0.01 µM); 0.227 in experiment [1] (first compound 0.03162 µM); 0.217 in experiment [1] (first compound 0.1 µM); 0.189 in experiment [1] (first compound 0.3162 µM); 0.182 in experiment [1] (first compound 1 µM); 0.209 in experiment [2] (first compound 0.01 µM). Also, the relative viability stood at 0.191 in experiment [2] (first compound 0.03162 µM); 0.206 in experiment [2] (first compound 0.1 µM); 0.211 in experiment [2] (first compound 0.3162 µM); 0.253 in experiment [2] (first compound 1 µM); 0.464 in experiment [3] (first compound 0.01 µM); 0.521 in experiment [3] (first compound 0.03162 µM). Also, the relative viability in experiment [3] (first compound 0.1 µM) stood at 0.71; in experiment [3] (first compound 0.3162 µM), 0.339; in experiment [3] (first compound 1 µM), 0.214; in experiment [4] (first compound 0.01 µM) it was 0.159; in experiment [4] (first compound 0.03162 µM), 0.179; in experiment [4] (first compound 0.1 µM), 0.205. For the same cell line, the relative viability in experiment [4] (first compound 0.3162 µM) amounted to 0.189; in experiment [4] (first compound 1 µM) it was 0.172.
For COR-L23, the relative viability stood at 0.863 in experiment [1] (first compound 0.01 µM); 0.862 in experiment [1] (first compound 0.03162 µM); 0.753 in experiment [1] (first compound 0.1 µM); 0.68 in experiment [1] (first compound 0.3162 µM); 0.285 in experiment [1] (first compound 1 µM); 0.853 in experiment [2] (first compound 0.01 µM). Besides, the relative viability was determined as 0.678 in experiment [2] (first compound 0.03162 µM); 0.589 in experiment [2] (first compound 0.1 µM); 0.564 in experiment [2] (first compound 0.3162 µM); 0.503 in experiment [2] (first compound 1 µM); 1.01 in experiment [3] (first compound 0.01 µM); 1.08 in experiment [3] (first compound 0.03162 µM). For the same cell line, the relative viability in experiment [3] (first compound 0.1 µM) was found to be 0.879; in experiment [3] (first compound 0.3162 µM) it was 0.835; in experiment [3] (first compound 1 µM), 0.318; in experiment [4] (first compound 0.01 µM), 0.216; in experiment [4] (first compound 0.03162 µM), 0.217; in experiment [4] (first compound 0.1 µM) it was 0.193. The relative viability in experiment [4] (first compound 0.3162 µM) worked out at 0.186; in experiment [4] (first compound 1 µM) it was 0.176.

For the origin of these results see the supplement of paper PMC10307832.
